Results from ChEMBL document CHEMBL3102818, “Tocopheramine succinate and tocopheryl succinate: mechanism of mitochondrial inhibition and superoxide radical production” (Bioorg Med Chem, 2014).
Activity calls are given as the source filed them. No cut-off for these calls is given here.

Key:
Bos taurus [1] = species on record: Bos taurus; assay: Induction of superoxide radical generation in bovine succinate-respiring submitochondrial particles assessed as oxidation of CPH after 2 mins by ESR spectroscopy relative to control; assay type: functional
Bos taurus [2] = species on record: Bos taurus; assay: Inhibition of oxygen consumption in bovine NADH-respiring submitochondrial particles involving complexes 1,3,4 after 3 mins relative to control; assay type: functional
Liver [3] = assay: Drug degradation in denaturated rat liver homogenates assessed as compound recovery at 500 nmol after 4 hrs by HPLC analysis; assay type: ADME, tissue-based; details: tissue homogenate
[4] = Inhibition of bovine mitochondrial electron transport protein complex 2 succinate:DCPIP oxidoreductase activity by spectrophotometry; parameters: species or system Bos taurus
N18TG2 [5] = assay: Induction of superoxide radical generation in mouse N18TG2 cells assessed as CMH oxidation at 200 uM after 2 hrs by ESR spectroscopy relative to control; assay type: functional, cell-based
[6] = Drug degradation in mouse N18TG2 cells assessed as alpha-TOH formation at 10 nmol after 24 hrs by HPLC analysis; assay type: ADME, cell-based; details: n18tg2, 24 h
Bos taurus [7] = species on record: Bos taurus; assay: Inhibition of oxygen consumption in bovine succinate-respiring submitochondrial particles involving complexes 2,3,4 after 3 mins relative to control; assay type: functional
Bos taurus [8] = species on record: Bos taurus; assay: Induction of superoxide radical generation in bovine succinate-respiring submitochondrial particles assessed as oxidation of CPH at 900 uM after 2 mins by ESR spectroscopy in presence of superoxide dismutase relative to control; assay type: functional
N18TG2 [9] = assay: Cytotoxicity against mouse N18TG2 cells at 6.25 to 100 uM by MTT assay; assay type: functional, cell-based
Bos taurus [10] = species on record: Bos taurus; assay: Induction of superoxide radical generation in bovine NADH-respiring submitochondrial particles assessed as oxidation of CPH after 2 mins by ESR spectroscopy relative to control; assay type: functional
Liver [11] = assay: Drug degradation in rat liver homogenates at 500 nmol after 4 hrs by HPLC analysis; assay type: ADME, tissue-based; details: tissue homogenate
Bos taurus [12] = species on record: Bos taurus; assay: Induction of superoxide radical generation in bovine NADH-respiring submitochondrial particles assessed as oxidation of CPH at 900 uM after 2 mins by ESR spectroscopy in presence of superoxide dismutase relative to control; assay type: functional
[13] = (§1) Inhibition of bovine mitochondrial electron transport protein complex 3 dUQH2:cytochrome c oxidoreductase activity by spectrophotometry; parameters: species or system Bos taurus
Bos taurus [14] = species on record: Bos taurus; assay: Inhibition of bovine mitochondrial electron transport protein complex 1 NADH:dUQ oxidoreductase activity by spectrophotometry
Liver [15] = assay: Drug degradation in rat liver homogenates assessed as alpha-TOH formation at 500 nmol after 4 hrs by HPLC analysis; assay type: ADME, tissue-based; details: tissue homogenate
HeLa = assay: Cytotoxicity against human HeLa cells at 100 to 200 uM by MTT assay; assay type: functional, cell-based
[16] = Induction of superoxide radical generation in mouse N18TG2 cells assessed as CMH oxidation at 50 uM after 2 hrs by ESR spectroscopy (reference value: 0.40 +/- 0.05 pmol/min); assay type: functional
Bos taurus [17] = species on record: Bos taurus; assay: Induction of superoxide radical generation in bovine succinate-respiring submitochondrial particles assessed as oxidation of CPH at 36 uM after 2 mins by ESR spectroscopy in presence of rotenone; assay type: functional
Bos taurus [18] = species on record: Bos taurus; assay: Induction of superoxide radical generation in bovine succinate-respiring submitochondrial particles assessed as oxidation of CPH at 36 uM after 2 mins by ESR spectroscopy; assay type: functional
Bos taurus [19] = species on record: Bos taurus; assay: Induction of superoxide radical generation in bovine NADH-respiring submitochondrial particles assessed as oxidation of CPH at 36 uM after 2 mins by ESR spectroscopy; assay type: functional
Bos taurus [20] = species on record: Bos taurus; assay: Induction of superoxide radical generation in bovine succinate-respiring submitochondrial particles assessed as oxidation of CPH at 900 uM after 2 mins by ESR spectroscopy; assay type: functional
Bos taurus [21] = species on record: Bos taurus; assay: Induction of superoxide radical generation in bovine NADH-respiring submitochondrial particles assessed as oxidation of CPH at 900 uM after 2 mins by ESR spectroscopy; assay type: functional
Bos taurus [22] = species on record: Bos taurus; assay: Induction of superoxide radical generation in bovine succinate-respiring submitochondrial particles assessed as oxidation of CPH at 900 uM after 2 mins by ESR spectroscopy in presence of rotenone; assay type: functional
Bos taurus [23] = species on record: Bos taurus; assay: as §1
Bos taurus [24] = species on record: Bos taurus; assay: Induction of superoxide radical generation in bovine succinate-respiring submitochondrial particles assessed as oxidation of CPH at 50 uM after 2 mins by ESR spectroscopy; assay type: functional

SMILES | Activity (Bos taurus [1]) | inhibition (Bos taurus [2]) | Stability (Liver [3]) | IC50 [4] | Activity (N18TG2 [5]) | Stability [6] | inhibition (Bos taurus [7]) | Activity (Bos taurus [8]) | Activity (N18TG2 [9]) | Activity (Bos taurus [10]) | Stability (Liver [11]) | Activity (Bos taurus [12]) | IC50 [13] | inhibition (Bos taurus [14]) | Stability (Liver [15]) | Activity (HeLa) | further results
Cc1c(C)c2c(c(C)c1NC(=O)CCC(=O)O)CC[C@@](C)(CCC[C@H](C)CCC[C@H](C)CCCC(C)C)O2 | inactive | Dose-dependent effect | Stable | 106 µM | inactive | Stable | Dose-dependent effect | inactive | Active | inactive | Unstable | inactive | 137 µM | inactive | Stable | inactive | 
CCCCCC[C@H]1C(=O)O[C@H](C)[C@H](NC(=O)c2cccc(NC=O)c2O)C(=O)O[C@@H](C)[C@@H]1OC(=O)CC(C)C [ANTIMYCIN A] |  |  |  |  |  |  |  |  |  |  |  |  |  |  |  |  | Activity [16]: 1.2 pmol/min; Activity (Bos taurus [17]): Active; Activity (Bos taurus [18]): Active; Activity (Bos taurus [19]): Active
Cc1c(C)c2c(c(C)c1OC(=O)CCC(=O)O)CC[C@@](C)(CCC[C@H](C)CCC[C@H](C)CCCC(C)C)O2 [(+)-ALPHA-TOCOPHERYL SUCCINATE] | Active | Dose-dependent effect | Stable | 42 µM | Active | Unstable | Dose-dependent effect | inactive | Active | Active | Unstable | inactive | 315 µM | inactive | Unstable | inactive | Activity (Bos taurus [20]): Active; Activity (Bos taurus [21]): Active; Activity (Bos taurus [22]): Active
CC(=O)Oc1c(C)c(C)c2c(c1C)CC[C@@](C)(CCC[C@H](C)CCC[C@H](C)CCCC(C)C)O2 | inactive |  |  | > 1000 µM | inactive |  |  |  |  | inactive |  |  |  |  |  |  | Drug degradation [6]: 100%; inhibition (Bos taurus [23]): Active
C=C(C)[C@H]1Cc2c(ccc3c2O[C@@H]2COc4cc(OC)c(OC)cc4[C@@H]2C3=O)O1 |  |  |  |  |  |  |  |  |  |  |  |  |  |  |  |  | Activity (Bos taurus [24]): Active
